What was measured:
[1] = system: influenza virus A strain New Calcdonia (H1N1); parameters: species or system Clawn minipigs; conditions: minipig, in vivo
[2] = system: influenza A virus strain Aichi/68/2/H3N2; test: Nasal vaccination of mice; anti-influenza IgA and IgG in nasal cavity lavage fluids and blood serum by ELISA; type: in vivo, BALB/c mice; conditions: compared with HA vaccine alone or with other AD vehicles

Row | Sequence | Effectiveness of AD vehicle in inducing antibody titers, in words [1] | Antibody-production-enhancing effect (IgA and/or IgG), in words [2]
1 | PVHLKRLLLLLLLLLLL [SP-CL11] | effective | –
2 | KKKKKKLLLLLLLLLLLLLLLL [K6L16, six K residues on the N-terminal side and 16 L residues on the C-terminal side] | effective | –
3 | PVHLRKLLLLLLLLLLLLLLLL (PVHLKRLLLLLLLLLLLLLLLL) [RK-SP-CL, comparison peptide; KR of the 5th-6th positions of SP-CL11 reversed to RK, more L residues] | – | not much involved in the antibody production

Reference: US8287887B2, “Antigen-and-drug vehicle comprising synthetic peptide, and mucosal vaccine using the same” (priority 2008, dated 2012)
